# Test results as given in patent publication US11083725B2 (priority 2014, dated 2021).
# Read-outs that look alike come from different tables or passages of the source.
# Legend:
# CA09 = assay: microbe, parasite or virus in culture; type: cell-based, influenza virus H1N1 strain A/CA/04/2009; conditions: for log reduction at 10 pM / log reduction at 0.0001 µM / log reduction at 0.001 µM / log reduction at 0.01 µM / log reduction at 0.1 µM / log reduction at 1 µM / log reduction at 10 µM / log reduction at 100 µM: NHBE, read-out: TCID50 (per mL); for Viral Titer Therapeutic: follow up validation titer, therapeutic treatment
# NHBE cells = assay: Biolog metabolic array: substrate use by NHBE cells with or without CA09 infection; type: cell-based, human; conditions: for Substrate use, 590 nm absorbance normalized to zero hour, 0 hr: Biolog PMM2, 0 hr; for Substrate use, 590 nm absorbance normalized to zero hour, 1 hr: Biolog PMM2, 1 hr; for Substrate use, 590 nm absorbance normalized to zero hour, 5 hr: Biolog PMM2, 5 hr; for Substrate use, 590 nm absorbance normalized to zero hour, 7 hr: Biolog PMM2, 7 hr
# [1] = Control (uninfected) NHBE cells
# [2] = Virus (CA09-infected, MOI 1) NHBE cells
# [3] = Virus: CA09-infected NHBE cells, MOI 1, Biolog PMM2
# [4] = Virus (CA09-infected NHBE cells, MOI 1)
compound,measurement,setting,value
CC(C)n1c(/C=C/C(O)CC(O)CC(=O)O)c(-c2ccc(F)cc2)c2ccccc21 (centres unmarked) [Fluvastatin],log reduction at 10 pM,"CA09; Therapeutic Drug Treatment, Drug Dose 10 pM, […]",0.16
same,log reduction at 0.0001 µM,"CA09; Therapeutic Drug Treatment, Drug Dose 100 pM, […]",0.5
same,log reduction at 0.001 µM,"CA09; Therapeutic Drug Treatment, Drug Dose 1 nM, […]",0.18
same,log reduction at 0.01 µM,"CA09; Therapeutic Drug Treatment, Drug Dose 10 nM, […]",0.34
same,log reduction at 0.1 µM,"CA09; Therapeutic Drug Treatment, Drug Dose 100 nM, […]",0.15
same,log reduction at 1 µM,"CA09; Therapeutic Drug Treatment, Drug Dose 1 μM, […]",0.51
same,log reduction at 10 µM,"CA09; Therapeutic Drug Treatment, Drug Dose 10 μM, […]",0.75
same,log reduction at 100 µM,"CA09; Therapeutic Drug Treatment, Drug Dose 100 μM, […]",-0.33
O=C(CO)[C@@H](O)[C@@H](O)[C@H](O)[C@H](O)CO [D-mannoheptulose],log reduction at 10 pM,CA09,0
same,log reduction at 0.0001 µM,CA09,0.76
same,log reduction at 0.001 µM,CA09,0.56
same,log reduction at 0.01 µM,CA09,0
same,log reduction at 0.1 µM,CA09,0.25
same,log reduction at 1 µM,CA09,0.88
same,log reduction at 10 µM,CA09,0.4
same,log reduction at 100 µM,CA09,-0.03
O=C(O)c1nn(Cc2ccc(Cl)cc2Cl)c2ccccc12 [Lonidamine],log reduction at 10 pM,CA09,0.94
same,log reduction at 0.0001 µM,CA09,0.54
same,log reduction at 0.001 µM,CA09,0.54
same,log reduction at 0.01 µM,CA09,0.67
same,log reduction at 0.1 µM,CA09,0.24
same,log reduction at 1 µM,CA09,0.24
same,log reduction at 10 µM,CA09,0.18
same,log reduction at 100 µM,CA09,0.65
CC(C)c1nc(N(C)S(C)(=O)=O)nc(-c2ccc(F)cc2)c1/C=C/[C@@H](O)C[C@@H](O)CC(=O)O [Rosuvastatin],log reduction at 10 pM,CA09,0
same,log reduction at 0.0001 µM,CA09,0.15
same,log reduction at 0.001 µM,CA09,0.76
same,log reduction at 0.01 µM,CA09,0.66
same,log reduction at 0.1 µM,CA09,0.41
same,log reduction at 1 µM,CA09,1
same,log reduction at 10 µM,CA09,0.79
same,log reduction at 100 µM,CA09,0.64
same,Viral Titer Therapeutic,CA09,Reduced
COc1ccc(Cc2nnc(NS(=O)(=O)c3ccccc3)s2)cc1 [OU749],log reduction at 10 pM,CA09,0
same,log reduction at 0.0001 µM,CA09,0.65
same,log reduction at 0.01 µM,CA09,0.35
same,log reduction at 10 µM,CA09,0.46
same,Viral Titer Therapeutic,CA09,Reduced
NCCO [2-Aminoethanol],"590 nm absorbance normalized to zero hour (substrate use), 0 hr",NHBE cells; [1],1.00
same,"590 nm absorbance normalized to zero hour (substrate use), 1 hr",NHBE cells; [1],1.30
same,"590 nm absorbance normalized to zero hour (substrate use), 3 hr",NHBE cells; [1],1.12
same,"590 nm absorbance normalized to zero hour (substrate use), 4 hr",NHBE cells; [1],1.15
same,"590 nm absorbance normalized to zero hour (substrate use), 6 hr",NHBE cells; [1],0.46
same,"590 nm absorbance normalized to zero hour (substrate use), 8 hr",NHBE cells; [1],1.06
same,"590 nm absorbance normalized to zero hour (substrate use), 9 hr",NHBE cells; [1],1.03
same,"590 nm absorbance normalized to zero hour (substrate use), 10 hr",NHBE cells; [1],1.05
same,"590 nm absorbance normalized to zero hour (substrate use), 11 hr",NHBE cells; [1],1.07
same,"Substrate use, 590 nm absorbance normalized to zero hour, 0 hr",NHBE cells; [1],1.00
same,"Substrate use, 590 nm absorbance normalized to zero hour, 1 hr",NHBE cells; [1],1.30
same,"Substrate use, 590 nm absorbance normalized to zero hour, 5 hr",NHBE cells; [1],1.24
same,"Substrate use, 590 nm absorbance normalized to zero hour, 7 hr",NHBE cells; [1],1.07
same,"590 nm absorbance normalized to zero hour (substrate use), 0 hr",NHBE cells; [2],1.00
same,"590 nm absorbance normalized to zero hour (substrate use), 1 hr",NHBE cells; [2],1.65
same,"590 nm absorbance normalized to zero hour (substrate use), 2 hr",NHBE cells; [2],2.01
same,"590 nm absorbance normalized to zero hour (substrate use), 3 hr",NHBE cells; [2],2.38
same,"590 nm absorbance normalized to zero hour (substrate use), 4 hr",NHBE cells; [2],2.50
same,"590 nm absorbance normalized to zero hour (substrate use), 5 hr",NHBE cells; [2],2.74
same,"590 nm absorbance normalized to zero hour (substrate use), 6 hr",NHBE cells; [2],2.88
same,"590 nm absorbance normalized to zero hour (substrate use), 7 hr",NHBE cells; [2],3.01
same,"590 nm absorbance normalized to zero hour (substrate use), 8 hr",NHBE cells; [2],3.12
same,"590 nm absorbance normalized to zero hour (substrate use), 9 hr",NHBE cells; [2],3.41
same,"590 nm absorbance normalized to zero hour (substrate use), 10 hr",NHBE cells; [2],3.22
same,"590 nm absorbance normalized to zero hour (substrate use), 11 hr",NHBE cells; [2],3.78
same,"590 nm absorbance normalized to zero hour (substrate use), 0 hr",NHBE cells; [3],1.00
same,"590 nm absorbance normalized to zero hour (substrate use), 1 hr",NHBE cells; [3],1.65
same,"590 nm absorbance normalized to zero hour (substrate use), 2 hr",NHBE cells; [3],2.01
same,"590 nm absorbance normalized to zero hour (substrate use), 3 hr",NHBE cells; [3],2.38
same,"590 nm absorbance normalized to zero hour (substrate use), 4 hr",NHBE cells; [3],2.50
same,"590 nm absorbance normalized to zero hour (substrate use), 5 hr",NHBE cells; [3],2.74
same,"590 nm absorbance normalized to zero hour (substrate use), 6 hr",NHBE cells; [3],2.88
same,"590 nm absorbance normalized to zero hour (substrate use), 7 hr",NHBE cells; [3],3.01
same,"590 nm absorbance normalized to zero hour (substrate use), 8 hr",NHBE cells; [3],3.12
same,"590 nm absorbance normalized to zero hour (substrate use), 9 hr",NHBE cells; [3],3.41
same,"590 nm absorbance normalized to zero hour (substrate use), 10 hr",NHBE cells; [3],3.22
same,"590 nm absorbance normalized to zero hour (substrate use), 11 hr",NHBE cells; [3],3.78
O=C(O)CCCO [g-Hydroxy-Butyric Acid],"590 nm absorbance normalized to zero hour (substrate use), 0 hr",NHBE cells; [1],1.00
same,"590 nm absorbance normalized to zero hour (substrate use), 1 hr",NHBE cells; [1],1.24
same,"590 nm absorbance normalized to zero hour (substrate use), 2 hr",NHBE cells; [1],1.38
same,"590 nm absorbance normalized to zero hour (substrate use), 3 hr",NHBE cells; [1],1.92
same,"590 nm absorbance normalized to zero hour (substrate use), 4 hr",NHBE cells; [1],1.86
same,"590 nm absorbance normalized to zero hour (substrate use), 6 hr",NHBE cells; [1],0.79
same,"590 nm absorbance normalized to zero hour (substrate use), 8 hr",NHBE cells; [1],1.94
same,"590 nm absorbance normalized to zero hour (substrate use), 9 hr",NHBE cells; [1],2.09
same,"590 nm absorbance normalized to zero hour (substrate use), 10 hr",NHBE cells; [1],2.05
same,"590 nm absorbance normalized to zero hour (substrate use), 11 hr",NHBE cells; [1],2.76
same,"Substrate use, 590 nm absorbance normalized to zero hour, 0 hr",NHBE cells; [1],1.00
same,"Substrate use, 590 nm absorbance normalized to zero hour, 1 hr",NHBE cells; [1],1.24
same,"Substrate use, 590 nm absorbance normalized to zero hour, 5 hr",NHBE cells; [1],1.71
same,"Substrate use, 590 nm absorbance normalized to zero hour, 7 hr",NHBE cells; [1],1.88
same,"590 nm absorbance normalized to zero hour (substrate use), 0 hr",NHBE cells; [4],1.00
same,"590 nm absorbance normalized to zero hour (substrate use), 1 hr",NHBE cells; [4],0.53
same,"590 nm absorbance normalized to zero hour (substrate use), 2 hr",NHBE cells; [4],0.53
same,"590 nm absorbance normalized to zero hour (substrate use), 3 hr",NHBE cells; [4],0.41
same,"590 nm absorbance normalized to zero hour (substrate use), 4 hr",NHBE cells; [4],0.44
same,"590 nm absorbance normalized to zero hour (substrate use), 5 hr",NHBE cells; [4],0.50
same,"590 nm absorbance normalized to zero hour (substrate use), 6 hr",NHBE cells; [4],0.54
same,"590 nm absorbance normalized to zero hour (substrate use), 7 hr",NHBE cells; [4],0.56
same,"590 nm absorbance normalized to zero hour (substrate use), 8 hr",NHBE cells; [4],0.59
same,"590 nm absorbance normalized to zero hour (substrate use), 9 hr",NHBE cells; [4],0.62
same,"590 nm absorbance normalized to zero hour (substrate use), 10 hr",NHBE cells; [4],0.63
same,"590 nm absorbance normalized to zero hour (substrate use), 11 hr",NHBE cells; [4],0.53
same,"590 nm absorbance normalized to zero hour (substrate use), 0 hr",NHBE cells; [3],1.00
same,"590 nm absorbance normalized to zero hour (substrate use), 1 hr",NHBE cells; [3],0.53
same,"590 nm absorbance normalized to zero hour (substrate use), 2 hr",NHBE cells; [3],0.53
same,"590 nm absorbance normalized to zero hour (substrate use), 3 hr",NHBE cells; [3],0.41
same,"590 nm absorbance normalized to zero hour (substrate use), 4 hr",NHBE cells; [3],0.44
same,"590 nm absorbance normalized to zero hour (substrate use), 5 hr",NHBE cells; [3],0.50
same,"590 nm absorbance normalized to zero hour (substrate use), 6 hr",NHBE cells; [3],0.54
same,"590 nm absorbance normalized to zero hour (substrate use), 7 hr",NHBE cells; [3],0.56
same,"590 nm absorbance normalized to zero hour (substrate use), 8 hr",NHBE cells; [3],0.59
same,"590 nm absorbance normalized to zero hour (substrate use), 9 hr",NHBE cells; [3],0.62
same,"590 nm absorbance normalized to zero hour (substrate use), 10 hr",NHBE cells; [3],0.63
same,"590 nm absorbance normalized to zero hour (substrate use), 11 hr",NHBE cells; [3],0.53
